Measurements: US9630963B2, “Quinolone derivatives as fibroblast growth factor inhibitors” (Principia Biopharma, Inc., priority 2013, dated 2017)

target: human recombinant FGFR1 (Homo sapiens, UniProt P11362); experiment: FGFR family enzymatic activity assay (Caliper-based kinase assay), FGFR1; assay type: biochemical; details: FGFR1 0.5 nM, ATP 100 μM, peptide substrate 1 μM, room temperature 3 h
Excerpt: A Caliper-based kinase assay (Caliper Life Sciences, Hopkinton, Mass.) was used to measure inhibition of FGFR family (FGFR1, FGFR2, FGFR3, FGFR4) kinase activity of a compound of Formula (I′) or (I). […] This value is presented as the IC50.

Sequence of human recombinant FGFR1 (P11362 22-822): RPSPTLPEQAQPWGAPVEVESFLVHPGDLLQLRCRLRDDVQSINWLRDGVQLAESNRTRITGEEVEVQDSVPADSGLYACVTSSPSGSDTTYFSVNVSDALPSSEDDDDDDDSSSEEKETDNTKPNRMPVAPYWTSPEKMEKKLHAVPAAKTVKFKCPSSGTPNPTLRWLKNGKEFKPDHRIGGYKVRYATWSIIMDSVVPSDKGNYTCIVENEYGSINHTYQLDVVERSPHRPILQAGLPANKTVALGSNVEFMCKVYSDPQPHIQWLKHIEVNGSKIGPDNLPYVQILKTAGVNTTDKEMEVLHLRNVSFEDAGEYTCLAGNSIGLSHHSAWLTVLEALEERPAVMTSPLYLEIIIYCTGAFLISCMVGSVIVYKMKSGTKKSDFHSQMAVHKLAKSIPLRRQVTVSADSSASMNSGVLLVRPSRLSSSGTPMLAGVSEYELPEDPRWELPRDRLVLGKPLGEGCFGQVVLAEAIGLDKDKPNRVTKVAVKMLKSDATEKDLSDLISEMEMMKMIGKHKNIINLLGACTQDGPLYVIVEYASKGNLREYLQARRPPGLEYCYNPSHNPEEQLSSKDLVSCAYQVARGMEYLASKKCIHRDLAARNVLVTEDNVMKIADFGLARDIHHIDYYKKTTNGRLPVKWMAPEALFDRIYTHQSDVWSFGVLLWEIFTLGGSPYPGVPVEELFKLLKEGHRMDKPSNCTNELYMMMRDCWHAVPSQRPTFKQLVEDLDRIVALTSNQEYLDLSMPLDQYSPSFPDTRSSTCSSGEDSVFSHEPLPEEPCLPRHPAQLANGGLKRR

| Compound | IC50 [nM] |
| --- | --- |
| C=CC(=O)Nc1cn(CCn2c(=O)c(-c3cc(OC)cc(OC)c3Cl)cc3cnc(NC)nc32)cn1 [Example 48, N-(1-(2-(6-(2-chloro-3,5-dimethoxyphenyl)-2-(methylamino)-7-oxopyrido[2,3-d]-pyrimidin-8(7H)-yl)ethyl)-1H-imidazol-4-yl)acrylamide] | 48 |
| C=CC(=O)Nc1ccc(CCn2c(=O)c(-c3cc(OC)cc(OC)c3Cl)cc3cnc(NCCN4CCC(F)(F)CC4)nc32)cc1 [Example 111, N-(4-(2-(6-(2-chloro-3,5-dimethoxyphenyl)-2-((2-(4,4-difluoropiperidin-1-yl)-ethyl)amino)-7-oxopyrido[2,3-d]pyrimidin-8(7H)-yl)ethyl)phenyl)acrylamide] | 3.4 |
| C=CC(=O)Nc1ccc(CCn2c(=O)c(-c3cc(OC)cc(OC)c3Cl)cc3cnc(NC(C)(CO)CO)nc32)cc1 [Example 95, N-(4-(2-(6-(2-chloro-3,5-dimethoxyphenyl)-2-((1,3-dihydroxy-2-methylpropan-2-yl)amino)-7-oxopyrido[2,3-d]pyrimidin-8(7H)-yl)ethyl)phenyl)acrylamide] | 6.2 |
| C=CC(=O)Nc1cccc(CCn2c(=O)c(-c3cc(OC)cc(OC)c3F)cc3cnc(NCCCCN(CC)CC)nc32)c1 [Example 42, N-(3-(2-(6-(2-fluoro-3,5-dimethoxyphenyl)-2-(4-diethylaminobutylamino)-7-oxopyrido[2,3-d]pyrimidin-8(7H)-yl)ethyl)phenyl)acrylamide] | 1.8 |
| C=CC(=O)Nc1ccc(CCn2c(=O)c(-c3c(Cl)cccc3Cl)cc3cnc(NC)nc32)nc1 [Example 107, N-(6-(2-(6-(2,6-dichlorophenyl)-2-(methylamino)-7-oxopyrido[2,3-d]pyrimidin-8(7H)-yl)ethyl)pyridin-3-yl)acrylamide] | 12.5 |
| C=CC(=O)Nc1ccc(CCn2c(=O)c(-c3cc(OC)cc(OC)c3Cl)cc3cnc(NCC4(O)CCN(C)CC4)nc32)cc1 [Example 96, N-(4-(2-(6-(2-chloro-3,5-dimethoxyphenyl)-2-(((4-hydroxy-1-methylpiperidin-4-yl)methyl)-amino)-7-oxopyrido[2,3-d]pyrimidin-8(7H)-yl)ethyl)phenyl)acrylamide] | 9.8 |
| C=CC(=O)Nc1ccc(CCn2c(=O)c(-c3cc(OC)cc(OC)c3Cl)cc3cnc(Nc4ccccn4)nc32)nc1 [Example 108, N-(6-(2-(6-(2-chloro-3,5-dimethoxyphenyl)-7-oxo-2-(pyridin-2-ylamino)pyrido[2,3-d]pyrimidin-8(7H)-yl)ethyl)pyridin-3-yl)acrylamide] | 8.2 |
| C=CC(=O)Nc1ccc(CCn2c(=O)c(-c3cc(OC)cc(OC)c3Cl)cc3cnc(NCCN4C[C@@H](C)N[C@@H](C)C4)nc32)cc1 [Example 85, N-(4-(2-(6-(2-chloro-3,5-dimethoxyphenyl)-2-((2-((3S,5R)-3,5-dimethylpiperazin-1-yl)ethyl)amino)-7-oxopyrido[2,3-d]pyrimidin-8(7H)-yl)ethyl)phenyl)acrylamide] | 1.2 |
| C=CC(=O)Nc1ccc(CCn2c(=O)c(-c3cc(OC)cc(OC)c3Cl)cc3cnc(NCC(C)(C)N4CCOCC4)nc32)cc1 [Example 110, N-(4-(2-(6-(2-chloro-3,5-dimethoxyphenyl)-2-((2-methyl-2-morpholinopropyl)-amino)-7-oxopyrido[2,3-d]pyrimidin-8(7H)-yl)ethyl)phenyl)acrylamide] | 1.9 |
| C=CC(=O)Nc1ccc(CCn2c(=O)c(-c3cc(OC)cc(OC)c3Cl)cc3cnc(NCCN(CC)CC)nc32)cn1 [Example 29, N-(5-(2-(6-(2-chloro-3,5-dimethoxyphenyl)-2-((2-(diethylamino)ethyl)amino)-7-oxopyrido[2,3-d]pyrimidin-8(7H)-yl)ethyl)pyridin-2-yl)acrylamide] | 49.3 |
| C=CC(=O)Nc1ccc(CCn2c(=O)c(-c3c(Cl)cccc3Cl)cc3cnc(NC)nc32)cc1 [Example 106, N-(4-(2-(6-(2,6-dichlorophenyl)-2-(methylamino)-7-oxopyrido[2,3-d]pyrimidin-8(7H)-yl)ethyl)phenyl)acrylamide] | 29.6 |
